The values below come from patent US20200102293A1, “LDHA ACTIVITY INHIBITORS” (ARCTIC PHARMA AS, priority 2017, published 2020).

For one data set, the target named is LDHA (Homo sapiens, UniProt P00338). Nature of the data set: Coupled diaphorase assay, LDHA. It counts as biochemical. Conditions: 4-7 nM LDHA, 500 μM lactate, 150 μM NAD+, lactate to pyruvate direction. The text has this: (§1) The inhibitory properties of the compounds were investigated using a coupled enzyme assay that links the lactate dehydrogenase (LDH) reaction to the production of fluorescent resorufin by diaphorase.
(§2) Human lactate dehydrogenases (LDH) catalyze the reversible interconversion between pyruvate and lactate. LDH is capable of catalyzing both the forward (pyruvate to lactate) and the reverse (lactate to pyruvate) reaction, using either NADH or NAD+ as cofactor. The reaction proceeds in either direction dependent on various factors, such as substrate availability, the presence of necessary cofactors, temperature and pH. Different isoforms (LDH A, B, and C) of the enzyme favor different reaction directions—LDHA prefers the conversion from pyruvate to lactate, whereas LDHB preferentially oxidizes lactate to pyruvate.
(§3) The coupled assay relies on the oxidation of NAD^+ to NADH throughout the conversion of lactate to pyruvate by LDH (isoforms A, B and C). The produced NADH serves as cofactor in the diaphorase reaction, which reduces non-fluorescent resazurin to fluorescent resorufin. Therefore, the assay indirectly monitors the rate of pyruvate production. Although the consumption of NADH can be directly monitored due to the intrinsic fluorescence of the molecule (excitation: 340 nm, emission: 460 nm) there are problems linked to the direct readout method. […] Shifting the assay to longer wavelengths by coupling the LDH reaction to the conversion of resazurin to fluorescent resorufin by diaphorase reduces this compound interference. The assay direction was thus chosen to provide a robust and reliable assay.
(§4) Compounds were tested in duplicates using 2-fold, 3-fold or 4-fold serial dilutions including 11 individual concentrations, starting from 5000 μM to 30 μM. […] The controls allowed for the calculation of the percentage inhibition for each data point. […] Enzyme solution leading to final concentrations of 4-7 nM LDHA or 6 nM LDHB, as well as 0.2 U/mI diaphorase in the reaction well was dispensed into 384-well plates (Greiner bio-one) using a CyBi®-SELMA robotic pipettor. Compound dilutions and the enzyme were incubated for at least 20 min at room temperature. […] The reaction was quenched by the addition of a stop solution (final concentrations: 20 mM EDTA, 400 mM NaCl, 40 mM pyruvate). Fluorescence was read out after 5 min of incubation at an excitation wavelength of 560 nm and an emission wavelength of 590 nm on a Perkin Elmer Victor X plate reader.
(§5) Therefore, an enzyme solution only containing diaphorase was incubated with the compound dilution series.
(§6) Dose response curves were fitted in KaleidaGraph (www.synergy.com) or Dotmatics software package (www.dotmatics.com) using a standard 4-parameter fit (Levenberg-Marquardt fitting procedure), resulting in IC50 values for the test compounds.

The next data set concerns the target LDHB (Homo sapiens, UniProt P07195). As to the kind of experiment: Coupled diaphorase assay, LDHB. It counts as biochemical. Conditions: 6 nM LDHB, 500 μM lactate, 150 μM NAD+, lactate to pyruvate direction.
Source text: as §1, §2, §3, §4, §5, §6

For data set [1], the system named is mice with temporal-lobe epilepsy. Conditions: directly injected into the hippocampus; cited from earlier work.
For a further data set, the system named is LDH. Conditions: in vitro; cited from earlier work.
Data set [2] relates to MIA PaCa-2 human pancreatic cells. Particulars: MIA PaCa-2 cells; cited from earlier work.
The conditions of data set [3]: in vivo; cited from earlier work.

Molecules are shown by their SMILES.

Sequence of LDHB (P07195 whole entry): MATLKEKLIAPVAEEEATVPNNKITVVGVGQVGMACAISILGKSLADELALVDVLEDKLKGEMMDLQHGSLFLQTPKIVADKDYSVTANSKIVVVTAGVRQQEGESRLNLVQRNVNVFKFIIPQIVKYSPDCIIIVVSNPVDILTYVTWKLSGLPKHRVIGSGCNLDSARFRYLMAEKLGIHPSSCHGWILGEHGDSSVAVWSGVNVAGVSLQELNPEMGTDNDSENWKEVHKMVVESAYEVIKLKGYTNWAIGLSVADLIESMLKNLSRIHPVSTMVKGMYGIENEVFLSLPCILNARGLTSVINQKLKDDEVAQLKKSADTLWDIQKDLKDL

In general, IC50 refers to the concentration that inhibits the measured activity by half. For the compound `CCOC(=O)OC1=C(Sc2ccccc2Cl)C(=O)NC(c2ccsc2)(c2cccc(Br)n2)C1` (stereo not drawn) [Example 3, 6′-bromo-5-((2-chlorophenyl)thio)-6-oxo-2-(thiophen-3-yl)-1,2,3,6-tetrahydro-[2,2′-bipyridin]-4-yl ethyl carbonate], the half-inhibitory concentration (IC50) at LDHA and at LDHB was more than 200 µM throughout.

For the compound `O=C1CC(c2ccsc2)(c2cccc(OCC3CCCC3)n2)NC(=O)C1Sc1ccccc1Cl` (stereo not drawn) [Example 9, 3-((2-chlorophenyl)thio)-6-(6-(cyclopentylmethoxy)pyridin-2-yl)-6-(thiophen-3-yl)piperidine-2,4-dione, reference compound], the IC50 on LDHA and on LDHB was 1 to 100 µM throughout.

For `CCCCCCCCCC(=O)OC1=C(Sc2ccccc2Cl)C(=O)NC(c2ccsc2)(c2cccc(OC3COC3)n2)C1` (stereo not drawn) [Example 7, 5-((2-chlorophenyl)thio)-6′-(oxetan-3-yloxy)-6-oxo-2-(thiophen-3-yl)-1,2,3,6-tetrahydro-[2,2′-bipyridin]-4-yl decanoate], the results for the IC50 on LDHA and on LDHB were 1 to 100 µM and 100 to 200 µM, respectively.

Take `CC(C)COC(=O)OC1=C(Sc2ccccc2Cl)C(=O)NC(c2ccc(N3CCOCC3)cc2)(c2ccsc2)C1` (stereo not drawn) [Example 2, 5-((2-chlorophenyl)thio)-2-(4-morpholinophenyl)-6-oxo-2-(thiophen-3-yl)-1,2,3,6-tetrahydropyridin-4-yl isobutyl carbonate]: the IC50 at LDHA was more than 200 µM.

With `COCCOC(=O)OC1=C(Sc2ccccc2Cl)C(=O)NC(c2ccsc2)(c2cccc(OCC3CCCC3)n2)C1` (stereo not drawn) [Example 4, 5-((2-chlorophenyl)thio)-6′-(cyclopentylmethoxy)-6-oxo-2-(thiophen-3-yl)-1,2,3,6-tetrahydro-[2,2′-bipyridin]-4-yl (2-methoxyethyl) carbonate], the IC50 at LDHA and at LDHB was more than 200 µM in each case.

Regarding `COC(=O)OC1=C(Sc2ccccc2Cl)C(=O)NC(c2ccc(N3CCOCC3)cc2)(c2ccsc2)C1` (stereo not drawn) [Example 5, 5-((2-chlorophenyl)thio)-2-(4-morpholinophenyl)-6-oxo-2-(thiophen-3-yl)-1,2,3,6-tetrahydropyridin-4-yl methyl carbonate], the IC50 on LDHA was in the range of 1 to 100 µM.

Consider `CCOC(=O)OC1=C(Sc2ccccc2Cl)C(=O)NC(c2ccc(Br)cc2)(c2ccsc2)C1` (stereo not drawn) [Example 1, 2-(4-bromophenyl)-5-[(2-chlorophenyl)sulfanyl]-6-oxo-2-(thiophen-3-yl)-1,2,3,6-tetrahydropyridin-4-yl ethyl carbonate], for which the IC50 is 1 to 100 µM on LDHA and more than 200 µM on LDHB.

Turning to `COC(=O)OC1=C(Sc2ccccc2Cl)C(=O)NC(c2ccsc2)(c2ccc(Br)cn2)C1` (stereo not drawn) [Example 6, 5′-bromo-5-((2-chlorophenyl)thio)-6-oxo-2-(thiophen-3-yl)-1,2,3,6-tetrahydro-[2,2′-bipyridin]-4-yl methyl carbonate], the IC50 at LDHA and at LDHB was more than 200 µM each time.

Consider `NC(=O)C(=O)O` [Oxamate], for which the effect on seizures entry in data set [1] is “suppress their seizures”. For the same compound, the “concentration range inhibiting LDH enzyme activity” value in the data set with LDH was “mM range”.

On to `O=C1CC(c2ccc(N3CCOCC3)cc2)(c2ccsc2)NC(=O)C1Sc1ccccc1Cl` (stereo not drawn) [GNE-140], for which, in data set [2], the “time of continuous LDHA inhibition until cell death” value was not below 2 days. Moreover, the clearance entry in data set [3] is given as “rapid clearance”.
